Measurements reported in ChEMBL document CHEMBL4014295, “Discovery and structure-activity relationship studies of N-substituted indole derivatives as novel Mcl-1 inhibitors” (Bioorg Med Chem Lett, 2017).

What was measured:
[1] = molecular target: Induced myeloid leukemia cell differentiation protein Mcl-1 (Homo sapiens, UniProt Q07820); assay: Inhibition of 6-carboxyfluorescein succinimidyl ester fluorescence tagged-Bid BH3 peptide (79 to 99 residues) binding to Mcl-1 (unknown origin) after 30 mins by fluorescence polarization assay
Chain of Induced myeloid leukemia cell differentiation protein Mcl-1 (Q07820 whole entry, the tested form may be a part): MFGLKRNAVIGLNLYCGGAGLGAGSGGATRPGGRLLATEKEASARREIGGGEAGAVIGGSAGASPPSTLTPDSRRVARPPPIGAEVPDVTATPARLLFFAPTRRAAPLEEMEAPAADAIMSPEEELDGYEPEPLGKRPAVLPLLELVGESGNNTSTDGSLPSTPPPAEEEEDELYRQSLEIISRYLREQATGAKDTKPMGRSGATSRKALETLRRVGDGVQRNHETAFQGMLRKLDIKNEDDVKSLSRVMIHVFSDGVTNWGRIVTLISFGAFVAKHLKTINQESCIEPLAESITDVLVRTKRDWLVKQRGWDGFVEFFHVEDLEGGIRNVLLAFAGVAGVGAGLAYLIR

[2] = molecular target: Apoptosis regulator Bcl-2 (Homo sapiens, UniProt P10415); assay: Inhibition of 6-carboxyfluorescein succinimidyl ester fluorescence tagged-Bid BH3 peptide (79 to 99 residues) binding to Bcl-2 (unknown origin) after 30 mins by fluorescence polarization assay
Chain of Apoptosis regulator Bcl-2 (P10415 whole entry, the tested form may be a part): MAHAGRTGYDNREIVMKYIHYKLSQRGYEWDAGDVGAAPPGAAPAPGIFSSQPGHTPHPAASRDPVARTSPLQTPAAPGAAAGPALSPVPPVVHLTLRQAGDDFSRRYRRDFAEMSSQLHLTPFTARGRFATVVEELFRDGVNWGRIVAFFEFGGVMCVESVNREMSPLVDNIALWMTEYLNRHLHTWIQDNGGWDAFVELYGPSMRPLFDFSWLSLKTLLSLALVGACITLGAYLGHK

Row | SMILES | Ki [1] | Ki [2]
1 | O=C(O)COc1ccc2ccn(CCCOc3cccc4ccccc34)c2c1 | 2570 nM | 
2 | CC(C)(C)Oc1ccc(OCCCn2ccc3ccc(OCC(=O)O)cc32)cc1 | 1870 nM | 
3 | Cc1cc(OCCCn2ccc3c(OCC(=O)O)cccc32)cc(C)c1Cl | 2000 nM | 
4 | Cc1cc(OCCCn2ccc3ccc(OCC(=O)O)cc32)cc(C)c1Cl | 1500 nM | 
5 | Cc1cc(OCCCn2c(C(=O)N3CCCCC3)cc3ccc(OCc4ccccc4C(=O)O)cc32)cc(C)c1Cl | 200 nM | 270 nM
6 | Cc1cc(OCCCn2ccc3cc(OCc4ccc(C(=O)O)cc4)ccc32)cc(C)c1Cl | 1630 nM | 1410 nM
7 | Cc1cc(OCCCn2ccc3ccc(OCCO)cc32)cc(C)c1Cl | 2100 nM | 
8 | Cc1cc(OCCCn2ccc3ccc(OCc4cccc(C(=O)O)c4)cc32)cc(C)c1Cl | 740 nM | 1190 nM
9 | COc1ccc(OCCCn2c(C(N)=O)cc3ccc(OCC(=O)O)cc32)cc1 | 7780 nM | 
10 | Cc1cc(OCCCn2ccc3ccc(OCC(=O)O)cc32)ccc1Cl | 9890 nM | 
11 | Cc1cc(OCCCn2c(C(=O)N(C)C)cc3ccc(OCc4ccccc4C(=O)O)cc32)cc(C)c1Cl | 570 nM | 730 nM
12 | COc1ccc(OCCCn2ccc3ccc(OCC(=O)O)cc32)cc1 | 4420 nM | 
13 | O=C(O)COc1ccc2ccn(CCCOc3ccccc3)c2c1 | > 30000 nM | 
14 | Cc1ccc2ccn(CCCOc3cc(C)c(Cl)c(C)c3)c2c1 | > 30000 nM | 
15 | Cc1cc(C)cc(OCCCn2ccc3ccc(OCC(=O)O)cc32)c1 | 12500 nM | 
16 | CC(C)(C)c1ccc(SCCCn2ccc3ccc(OCC(=O)O)cc32)cc1 | 2380 nM | 
17 | O=C(O)COc1ccc2ccn(CCCOc3ccc(Oc4ccccc4)cc3)c2c1 | 3240 nM | 
18 | CCOC(=O)COc1ccc2ccn(CCCOc3cc(C)c(Cl)c(C)c3)c2c1 | 3370 nM | 
19 | Cc1cc2c(C(C)C)c(O)c(O)c(C=O)c2c(O)c1-c1c(C)cc2c(C(C)C)c(O)c(O)c(C=O)c2c1O [GOSSYPOL] | 200 nM | 
20 | CNC(=O)c1cc2ccc(OCc3ccccc3C(=O)O)cc2n1CCCOc1cc(C)c(Cl)c(C)c1 | 890 nM | 810 nM
21 | NC(=O)c1cc2ccc(OCC(=O)O)cc2n1CCCOc1cccc2ccccc12 | 10300 nM | 

Row | SMILES | Ki [1] | Ki [2]
22 | Cc1cc(OCCn2ccc3ccc(OCC(=O)O)cc32)cc(C)c1Cl | 11600 nM | 
23 | Cc1cc(OCCCn2ccc3ccc(C(=O)O)cc32)cc(C)c1Cl | 3000 nM | 
24 | Cc1cc(OCCCn2ccc3ccc(OCc4ccccc4C(=O)O)cc32)cc(C)c1Cl | 800 nM | 1050 nM
25 | CC(C)(C)Oc1ccc(OCCCn2c(C(N)=O)cc3ccc(OCC(=O)O)cc32)cc1 | 5380 nM | 
26 | Cc1cc(OCCCn2ccc3c(OCc4cccc(C(=O)O)c4)cccc32)cc(C)c1Cl | 150 nM | 140 nM
27 | Cc1cc(OCCCn2ccc3cc(OCc4cccc(C(=O)O)c4)ccc32)cc(C)c1Cl | 200 nM | 410 nM
28 | CC(C)(C)c1ccc(OCCCn2c(C(=O)N3CCCCC3)cc3ccc(OCc4ccccc4C(=O)O)cc32)cc1 | 360 nM | 150 nM
29 | O=C(O)COc1ccc2ccn(CCCOc3ccc(Cl)cc3)c2c1 | 12900 nM | 
30 | Cc1cc(OCCCn2ccc3ccc(OCCCC(=O)O)cc32)cc(C)c1Cl | 2680 nM | 
31 | CC(C)(C)c1ccc(OCCCn2ccc3cc(OCc4cccc(C(=O)O)c4)ccc32)cc1 | 250 nM | 470 nM
32 | Cc1cc(OCCCn2ccc3ccc(OCc4ccc(C(=O)O)cc4)cc32)cc(C)c1Cl | 1190 nM | 1240 nM
33 | Cc1cc(OCCCn2ccc3cc(OCc4ccccc4C(=O)O)ccc32)cc(C)c1Cl | 110 nM | 760 nM
34 | Cc1cc(OCCCn2ccc3cc(OCC(=O)O)ccc32)cc(C)c1Cl | 1490 nM | 
35 | CC(C)(C)c1ccc(OCCn2ccc3ccc(OCC(=O)O)cc32)cc1 | 8190 nM | 
36 | Cc1cccc(OCCCn2ccc3ccc(OCC(=O)O)cc32)c1 | > 30000 nM | 
37 | Cc1cc(OCCCn2ccc3ccccc32)cc(C)c1Cl | > 30000 nM | 
38 | CC(C)(C)c1ccc(OCCCn2ccc3cc(OCc4ccccc4C(=O)O)ccc32)cc1 | 310 nM | 170 nM
39 | NC(=O)c1cc2ccc(OCC(=O)O)cc2n1CCCOc1ccc(Oc2ccccc2)cc1 | 4130 nM | 
40 | Cc1cc(OCCCn2c(C(N)=O)cc3ccc(OCc4ccccc4C(=O)O)cc32)cc(C)c1Cl | 950 nM | 850 nM
41 | Cc1cc(OCCCn2ccc3c(OCc4ccccc4C(=O)O)cccc32)cc(C)c1Cl | 140 nM | 230 nM
42 | CCOC(=O)c1ccc2ccn(CCCOc3cc(C)c(Cl)c(C)c3)c2c1 | > 30000 nM | 
